Values quoted from earlier work as cited in US10676418B2, “Method for producing microparticles from pressurized and heated starting material solution” (M. TECHNIQUE CO., LTD., priority 2016, dated 2020).

Details: 25° C.; normal temperature and pressure

solubility in ethanol: about 0.5 % by weight
Structure (SMILES): COc1cc(/C=C/C(=O)CC(=O)/C=C/c2ccc(O)c(OC)c2)ccc1O [curcumin]
